# Measured values from patent US20260325685A1, “Radiopharmaceutical Compositions Targeting Carbonic Anhydrase IX and Uses Thereof” (RayzeBio, Inc., priority 2023, published 2026).
# pKd: −log10 of the molar value. Like-named read-outs stand apart in the source and are kept apart here.
# Assays:
# [1] = target: T1, human CA-XII (Homo sapiens, UniProt O43570); test: Surface Plasmon Resonance (SPR) binding kinetics to recombinant human CA-XII (Biacore 8K, single-cycle kinetics, 1:1 binding model)
# T1 construct: purchased Creative BioMart CA12-261H
# T1 sequence (O43570 25-354): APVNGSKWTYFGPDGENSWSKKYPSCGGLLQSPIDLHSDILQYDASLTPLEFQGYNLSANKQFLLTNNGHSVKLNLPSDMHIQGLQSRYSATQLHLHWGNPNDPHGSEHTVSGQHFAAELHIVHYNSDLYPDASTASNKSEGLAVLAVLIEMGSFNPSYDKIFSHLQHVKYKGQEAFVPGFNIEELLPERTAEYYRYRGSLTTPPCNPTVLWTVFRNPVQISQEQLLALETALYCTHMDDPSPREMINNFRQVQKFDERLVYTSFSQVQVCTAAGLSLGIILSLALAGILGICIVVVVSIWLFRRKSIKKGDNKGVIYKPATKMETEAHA
# Description: (§1) G1. Surface Plasmon Resonance Assay Conditions for hCA-IX and hCA-XII
# (§2) Surface Plasmon Resonance (SPR) experiments were conducted on a Biacore 8K instrument (Cytiva, Marlborough, MA) to determine the binding kinetics of the compound to recombinant human CA-IX (Acro, CA9-H82E3) and CA-XII (Creative BioMart, CA12-261H) proteins. The ligands were diluted to 10 μg/mL in PBS-P+ buffer (20 mM phosphate buffer, pH 7.4, with 2.7 mM KCl, 137 mM NaCl, and 0.05% Tween 20) and captured on Series S Streptavidin Sensor Chips (Cytiva, 29699621) to 1200-1800 response units (RU) using a flow rate of 5 μL/min and injection times of 180 seconds for human CA-IX and 75 seconds for human CA-XII. Analyte binding was evaluated using a single-cycle kinetics method over 9 analyte concentrations (100-0.39 nM) in PBS-P+ buffer with 1% DMSO using a 50 μL/min. flow rate, 120 second association time, and 1200 second dissociation time. The flow cell temperature was set to 25° C. Analyte binding curves were fit to a 1:1 binding kinetic model in Biacore Insight Evaluation software (version 4.0.8.20368) following reference flow cell subtraction and DMSO correction to derive the association and dissociation binding constants.
# [2] = target: T2, human CA-IX (Homo sapiens, UniProt Q16790); test: Surface Plasmon Resonance (SPR) binding kinetics to recombinant human CA-IX (Biacore 8K, single-cycle kinetics, 1:1 binding model)
# T2 construct: purchased Acro CA9-H82E3
# Description: as §1, §2
# [3] = Chelated Metal: None, 25° C., pH 7.4, read-out: CAXII KD
# [4] = Chelated Metal: None; SPR, 25° C., pH 7.4; read-out: CAIX KD
# [5] = KD ratio CAXII/CAIX; Chelated Metal: None
# [6] = Chelated Metal: Lu-175, 25° C., pH 7.4, read-out: CAXII KD
# [7] = Chelated Metal: Lu-175; SPR, 25° C., pH 7.4; read-out: CAIX KD
# [8] = read-out: CAXII KD, Chelated Metal: Lu-175, 25° C., pH 7.4
# [9] = read-out: CAIX KD; Chelated Metal: Lu-175; SPR, 25° C., pH 7.4
Structure (SMILES),"pKd [1, 6]","pKd [2, 7]",other results
CC(CCCC(=O)N1CCC(C(N)=O)(C(=O)NCC(=O)N2CCN(C(=O)CN3CCN(CC(=O)O)CCN(CC(=O)O)CCN(CC(=O)O)CC3)C[C@H]2C(=O)NCCn2cc(C34CC(c5cn6nc(S(N)(=O)=O)sc6n5)(C3)C4)nn2)CC1)(c1ccc(O)cc1)c1ccc(O)cc1 [Compound 107.53],–,–,"pKd [1, 3]: 8.00 to 8.60; pKd [2, 4]: > 9.00; Ratio (CAXII/CAIX) [2, 5]: **** (50 < ****)"
NS(=O)(=O)c1nnc(NC(=O)C23CC(c4cn(CCNC(=O)[C@@H]5CN(C(=O)CN6CCN(CC(=O)O)CCN(CC(=O)O)CCN(CC(=O)O)CC6)CCN5C(=O)C[C@H](NC(=O)C[C@H](NC(=O)c5ccc(C6CC6)cc5)C(=O)O)C(=O)O)nn4)(C2)C3)s1.[Lu+3] [Compound 109.1],8.00 to 8.60,> 9.00,–
CC(CCC(=O)N[C@@H](CC(=O)N[C@@H](CC(=O)N1CCN(C(=O)CN2CCN(CC(=O)O)CCN(CC(=O)O)CCN(CC(=O)O)CC2)C[C@H]1C(=O)NCCn1cc(-c2ccc(C(=O)Nc3nnc(S(N)(=O)=O)s3)cc2)nn1)C(=O)O)C(=O)O)(c1ccc(O)cc1)c1ccc(O)cc1.[Lu+3] [Compound 107.22],< 8.00,8.60 to 9.00,–
NS(=O)(=O)c1nnc(NC(=O)C23CC(c4cn(CCNC(=O)[C@@H]5CN(C(=O)CN6CCN(CC(=O)O)CCN(CC(=O)O)CCN(CC(=O)O)CC6)CCN5C(=O)C[C@H](NC(=O)C[C@H](NC(=O)Cc5n[nH]c6ccc(O)cc56)C(=O)O)C(=O)O)nn4)(C2)C3)s1.[Lu+3] [Compound 109.32],< 8.00,> 9.00,–
CC(CCC(=O)N[C@@H](CC(=O)N[C@@H](CC(=O)N1CCN(C(=O)NCCOCCNC(=O)CN2CCN(CC(=O)O)CCN(CC(=O)O)CCN(CC(=O)O)CC2)C[C@@H]1CCCCn1cc(CCCC(=O)Nc2nnc(S(N)(=O)=O)s2)nn1)C(=O)O)C(=O)O)(c1ccc(O)cc1)c1ccc(O)cc1.[Lu+3] [Compound 123],–,–,"pKd [1, 8]: 8.00 to 8.60; pKd [2, 9]: 8.60 to 9.00"
NS(=O)(=O)c1nnc(NC(=O)C23CC(c4cn(C[C@H]5CN(C(=O)CN6CCN(CC(=O)O)CCN(CC(=O)O)CCN(CC(=O)O)CC6)CCN5C(=O)[C@@H]5COCCN5C(=O)CCc5n[nH]c6ccccc56)nn4)(C2)C3)s1.[Lu+3] [Compound 114.3],< 8.00,8.60 to 9.00,–
NS(=O)(=O)c1nnc(NC(=O)C23CC(c4cn(C[C@H]5CN(C(=O)CN6CCN(CC(=O)O)CCN(CC(=O)O)CCN(CC(=O)O)CC6)CCN5c5nccc(NCCc6n[nH]c7ccccc67)n5)nn4)(C2)C3)s1.[Lu+3] [Compound 115],–,–,"pKd [1, 8]: < 8.00; pKd [2, 9]: 8.00 to 8.60"
NS(=O)(=O)c1nnc(NC(=O)C23CC(c4cn(CCNC(=O)[C@@H]5CN(C(=O)CN6CCN(CC(=O)O)CCN(CC(=O)O)CCN(CC(=O)O)CC6)CCN5C(=O)C[C@H](NC(=O)C[C@H](NC(=O)c5cccc(C6CC6)c5)C(=O)O)C(=O)O)nn4)(C2)C3)s1.[Lu+3] [Compound 109],–,–,"pKd [1, 8]: 8.00 to 8.60; pKd [2, 9]: > 9.00"
NS(=O)(=O)c1nnc(NC(=O)C23CC(c4cn(CCNC(=O)[C@@H]5CN(C(=O)CN6CCN(CC(=O)O)CCN(CC(=O)O)CCN(CC(=O)O)CC6)CCN5C(=O)C[C@H](Nc5ncc(C(=O)NCCc6ccc(F)c(F)c6)cn5)C(=O)O)nn4)(C2)C3)s1.[Lu+3] [Compound 111.8],< 8.00,8.00 to 8.60,–
CC(CCC(=O)N[C@@H](CC(=O)N[C@@H](CC(=O)N[C@@H](CCCCn1cc(C23CCC(C(=O)Nc4nnc(S(N)(=O)=O)s4)(CC2)CC3)nn1)C(=O)NCCOCCOCCNC(=O)CN1CCN(CC(=O)O)CCN(CC(=O)O)CCN(CC(=O)O)CC1)C(=O)O)C(=O)O)(c1ccc(O)cc1)c1ccc(O)cc1.[Lu+3] [Compound 100.6],8.60 to 9.00,> 9.00,–
CC(CCCC(=O)N1CCOC[C@H]1C(=O)N[C@@H](CC(=O)N1CCN(C(=O)CCOCCOCCOCCOCCN(CCOCCOCCOCCOCCC(=O)N2CCN(C(=O)C[C@H](NC(=O)[C@@H]3COCCN3C(=O)CCCC(C)(c3ccc(O)cc3)c3ccc(O)cc3)C(=O)O)[C@@H](C(=O)NCCn3cc(C45CC(C(=O)Nc6nnc(S(N)(=O)=O)s6)(C4)C5)nn3)C2)C(=O)CNC(=O)CN2CCN(CC(=O)O)CCN(CC(=O)O)CCN(CC(=O)O)CC2)C[C@@H]1C(=O)NCCn1cc(C23CC(C(=O)Nc4nnc(S(N)(=O)=O)s4)(C2)C3)nn1)C(=O)O)(c1ccc(O)cc1)c1ccc(O)cc1.[Lu+3] [Compound 131.3],> 9.00,> 9.00,–
CC(CCC(=O)N1CCN(C(=O)CN2CCN(CC(=O)O)CCN(CC(=O)O)CCN(CC(=O)O)CC2)C[C@H]1C(=O)N[C@@H](CC(=O)N1CCOC[C@@H]1Cn1cc(C23CC(C(=O)Nc4nnc(S(N)(=O)=O)s4)(C2)C3)nn1)C(=O)O)(c1ccc(O)cc1)c1ccc(O)cc1.[Lu+3] [Compound 118.2],< 8.00,8.60 to 9.00,–
Cc1c(C(=O)N[C@@H](CC(=O)N[C@@H](CC(=O)N2CCN(C(=O)CN3CCN(CC(=O)O)CCN(CC(=O)O)CCN(CC(=O)O)CC3)C[C@H]2C(=O)NCCn2cc(C34CC(C(=O)Nc5nnc(S(N)(=O)=O)s5)(C3)C4)nn2)C(=O)O)C(=O)O)n[nH]c1C(F)(F)F.[Lu+3] [Compound 109.3],> 9.00,> 9.00,–
CC(CCC(=O)N[C@@H](CC(=O)N[C@@H](CC(=O)NC1(CCCCn2cc(CCCCC(=O)Nc3nnc(S(N)(=O)=O)s3)nn2)CCN(C(=O)OCCOCCNC(=O)CN2CCN(CC(=O)O)CCN(CC(=O)O)CCN(CC(=O)O)CC2)CC1)C(=O)O)C(=O)O)(c1ccc(O)cc1)c1ccc(O)cc1.[Lu+3] [Compound 116.1],8.00 to 8.60,8.60 to 9.00,–
NS(=O)(=O)c1nnc(NC(=O)C23CCC(c4cn(CCNC(=O)[C@@H]5CN(C(=O)CN6CCN(CC(=O)O)CCN(CC(=O)O)CCN(CC(=O)O)CC6)CCN5C(=O)CC[C@H](NC(=O)C[C@H](NC(=O)CCC5CCCCCC5)C(=O)O)C(=O)O)nn4)(CC2)CC3)s1.[Lu+3] [Compound 109.46],> 9.00,> 9.00,–
NS(=O)(=O)c1c(F)c(F)c(S(=O)(=O)CCOCc2cn(CCCNC(=O)[C@@H]3CN(C(=O)CN4CCN(CC(=O)O)CCN(CC(=O)O)CCN(CC(=O)O)CC4)CCN3C(=O)CNC(=O)C3(C(=O)O)CCN(C(=O)CCCCc4ccc(O)cc4)CC3)nn2)c(NC2CCCCCCC2)c1F.[Lu+3] [Compound 107.45],8.00 to 8.60,> 9.00,–
NS(=O)(=O)c1nnc(NC(=O)C23CC(c4cn(CCNC(=O)[C@H]5CNCCN5C(=O)[C@H](CCCCNC(=O)CN5CCN(CC(=O)O)CCN(CC(=O)O)CCN(CC(=O)O)CC5)NC(=O)CC[C@H](NC(=O)c5n[nH]c6ccccc56)C(=O)O)nn4)(C2)C3)s1.[Lu+3] [Compound 118.3],8.00 to 8.60,8.00 to 8.60,–
NS(=O)(=O)c1nnc(NC(=O)C23CC(c4cn(C[C@H]5CN(C(=O)CN6CCN(CC(=O)O)CCN(CC(=O)O)CCN(CC(=O)O)CC6)CCN5C(=O)C[C@H](NC(=O)[C@@H]5COCCN5C(=O)Cc5n[nH]c6ccccc56)C(=O)O)nn4)(C2)C3)s1.[Lu+3] [Compound 114.1],< 8.00,8.60 to 9.00,–
CC(CCC(=O)N[C@@H](CC(=O)N[C@@H](CC(=O)N1CCN(C(=O)CCC(CCC(=O)N2CCN(C(=O)C[C@H](NC(=O)C[C@H](NC(=O)CCC(C)(c3ccc(O)cc3)c3ccc(O)cc3)C(=O)O)C(=O)O)[C@H](C(=O)NCCn3cc(C45CC(C(=O)Nc6nnc(S(N)(=O)=O)s6)(C4)C5)nn3)C2)NC(=O)CN2CCN(CC(=O)O)CCN(CC(=O)O)CCN(CC(=O)O)CC2)C[C@H]1C(=O)NCCn1cc(C23CC(C(=O)Nc4nnc(S(N)(=O)=O)s4)(C2)C3)nn1)C(=O)O)C(=O)O)(c1ccc(O)cc1)c1ccc(O)cc1 (stereo partly shown) [Compound 131.4],–,–,"pKd [1, 3]: > 9.00; pKd [2, 4]: > 9.00; Ratio (CAXII/CAIX) [2, 5]: * (1 < * < 5)"
